Laboratory results published in PubChem BioAssay AID248 (DTP/NCI, 2004).
Where “and” joins values, the source holds several entries; their conditions need not be identical. Identical values can stand only once. Inconclusive results and toxic doses are left out.

Test system: L1210 leukemia ip in BDF1 mice, survival T/C
Assay: NCI In Vivo Anticancer Drug Screen. Data for tumor model L1210 Leukemia (intraperitoneal) in B6D2F1 (BDF1) mice
Conditions: endpoint: mean survival time, higher = longer survival
In short: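 Mice bearing the transplanted tumor received compound or vehicle. Survival of the treated group was divided by that of the vehicle-treated control group to give the ratio.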

[1] = dose: 100.0 mg/kg/injection, schedule: Q04DX003 (ip), vehicle: saline with Tween-80
[2] = dose: 200.0 mg/kg/injection, schedule: Q04DX003 (ip), vehicle: saline with Tween-80
[3] = dose: 100.0 mg/kg/injection, schedule: Q01DX009 (ip), vehicle: saline with Tween-80
[4] = dose: 200.0 mg/kg/injection, schedule: Q01DX009 (ip), vehicle: saline with Tween-80
[5] = dose: 75.0 mg/kg/injection, schedule: Q01DX001 (ip), vehicle: saline
[6] = dose: 100.0 mg/kg/injection, schedule: Q01DX001 (ip), vehicle: carboxymethylcellulose (CMC)
[7] = dose: 100.0 mg/kg/injection, schedule: Q01DX009 (ip), vehicle: saline
[8] = dose: 150.0 mg/kg/injection, schedule: Q01DX001 (ip), vehicle: saline
[9] = dose: 200.0 mg/kg/injection, schedule: Q01DX001 (ip), vehicle: carboxymethylcellulose (CMC)
[10] = dose: 200.0 mg/kg/injection, schedule: Q01DX009 (ip), vehicle: saline
[11] = dose: 300.0 mg/kg/injection, schedule: Q01DX001 (ip), vehicle: saline
[12] = dose: 400.0 mg/kg/injection, schedule: Q01DX001 (ip), vehicle: carboxymethylcellulose (CMC)
[13] = dose: 400.0 mg/kg/injection, schedule: Q01DX009 (ip), vehicle: saline
[14] = dose: 100.0 mg/kg/injection, schedule: Q01DX001 (ip), vehicle: saline
[15] = dose: 200.0 mg/kg/injection, schedule: Q01DX001 (ip), vehicle: saline
[16] = dose: 400.0 mg/kg/injection, schedule: Q01DX001 (ip), vehicle: saline
[17] = dose: 100.0 mg/kg/injection, schedule: Q01DX001 (ip), vehicle: saline with Tween-80
[18] = dose: 200.0 mg/kg/injection, schedule: Q01DX001 (ip), vehicle: saline with Tween-80
[19] = dose: 400.0 mg/kg/injection, schedule: Q01DX001 (ip), vehicle: saline with Tween-80

Structure (SMILES): ClC(Cl)(Cl)C/C=C\CBr
- T/C (dose: 25.0 mg/kg/injection, schedule: Q01DX009 (ip), vehicle: acetone): 98 % of control
- T/C (dose: 50.0 mg/kg/injection, schedule: Q01DX009 (ip), vehicle: acetone): 102 % of control
- T/C (dose: 50.0 mg/kg/injection, schedule: Q04DX003 (ip), vehicle: acetone): 97 % of control
- T/C (dose: 100.0 mg/kg/injection, schedule: Q01DX001 (ip), vehicle: acetone): 89 % of control
- T/C (dose: 100.0 mg/kg/injection, schedule: Q01DX009 (ip), vehicle: acetone): 93 % of control
- T/C (dose: 100.0 mg/kg/injection, schedule: Q04DX003 (ip), vehicle: acetone): 92 % of control
- T/C (dose: 200.0 mg/kg/injection, schedule: Q01DX001 (ip), vehicle: acetone): 91 % of control

Structure (SMILES): CN(C)Cc1ccccc1C(=O)C(c1ccccc1)c1ccccc1
- T/C (dose: 55.0 mg/kg/injection, schedule: Q01DX Z (ip), vehicle: methylcellulose (MC)): 100 % of control
- T/C (dose: 83.0 mg/kg/injection, schedule: Q01DX Z (ip), vehicle: methylcellulose (MC)): 94 % of control

Structure (SMILES): c1ccc2c(c1)CC1Sc3ccccc3N=C21 (stereo unspecified)
- T/C [1]: 103 % of control
- T/C [2]: 95 % of control

Structure (SMILES): N#Cc1ccc2c(c1)C([P+](c1ccccc1)(c1ccccc1)c1ccccc1)c1ccccc1-2 (stereo unspecified)
- T/C (dose: 75.0 mg/kg/injection, schedule: Q01DX001 (ip), vehicle: carboxymethylcellulose (CMC)): 88 % of control
- T/C (dose: 300.0 mg/kg/injection, schedule: Q01DX001 (ip), vehicle: carboxymethylcellulose (CMC)): 92 % of control

Structure (SMILES): CC(C)(C)NC1CCCC1Cl (stereo unspecified)
- T/C [3]: 106 % of control
- T/C [4]: 102 % of control

Structure (SMILES): CC(=O)CC(=O)NCCCN1CCCCC1
- T/C (dose: 12.5 mg/kg/injection, schedule: Q01DX009 (ip), vehicle: saline with Tween-80): 103 % of control
- T/C (dose: 12.5 mg/kg/injection, schedule: Q04DX003 (ip), vehicle: saline with Tween-80): 103 % of control
- T/C (dose: 25.0 mg/kg/injection, schedule: Q01DX009 (ip), vehicle: saline with Tween-80): 100 % of control
- T/C (dose: 25.0 mg/kg/injection, schedule: Q04DX003 (ip), vehicle: saline with Tween-80): 106 % of control
- T/C (dose: 50.0 mg/kg/injection, schedule: Q04DX003 (ip), vehicle: saline with Tween-80): 97 % of control and 103 % of control

Structure (SMILES): CC(=O)Oc1ccc[nH]c1=O
- T/C [5]: 103 % of control
- T/C (dose: 75.0 mg/kg/injection, schedule: Q04DX003 (ip), vehicle: saline): 103 % of control
- T/C [6]: 100 % of control
- T/C (dose: 100.0 mg/kg/injection, schedule: Q01DX009 (ip), vehicle: carboxymethylcellulose (CMC)): 98 % of control
- T/C [7]: 101 % of control
- T/C (dose: 100.0 mg/kg/injection, schedule: Q01DX015 (ip), vehicle: saline): 102 % of control
- T/C [8]: 102 % of control
- T/C (dose: 150.0 mg/kg/injection, schedule: Q04DX003 (ip), vehicle: saline): 100 % of control
- T/C [9]: 97 % of control
- T/C (dose: 200.0 mg/kg/injection, schedule: Q01DX009 (ip), vehicle: carboxymethylcellulose (CMC)): 109 % of control
- T/C [10]: 114 % of control
- T/C (dose: 200.0 mg/kg/injection, schedule: Q01DX015 (ip), vehicle: saline): 124 % of control
- T/C [11]: 110 % of control
- T/C (dose: 300.0 mg/kg/injection, schedule: Q04DX003 (ip), vehicle: saline): 113 % of control
- T/C [12]: 103 % of control
- T/C [13]: 153 % of control
- T/C (dose: 800.0 mg/kg/injection, schedule: Q01DX009 (ip), vehicle: carboxymethylcellulose (CMC)): 154 % of control
- T/C (dose: 800.0 mg/kg/injection, schedule: Q01DX009 (ip), vehicle: saline): 88 % of control

Structure (SMILES): O=[N+]([O-])c1ccc(N/N=C/C(O)C(O)C(O)CO)cc1 (stereo unspecified)
- T/C (dose: 50.0 mg/kg/injection, schedule: Q04DX002 (ip), vehicle: saline with Tween-80): 106 % of control
- T/C (dose: 100.0 mg/kg/injection, schedule: Q04DX002 (ip), vehicle: saline with Tween-80): 106 % of control
- T/C (dose: 200.0 mg/kg/injection, schedule: Q04DX002 (ip), vehicle: saline with Tween-80): 87 % of control

Structure (SMILES): NC(Cc1ncc[nH]1)C(=O)O (stereo unspecified)
- T/C (dose: 100.0 mg/kg/injection, schedule: Q04DX002 (ip), vehicle: other): 104 % of control
- T/C (dose: 200.0 mg/kg/injection, schedule: Q04DX002 (ip), vehicle: other): 96 % of control
- T/C (dose: 400.0 mg/kg/injection, schedule: Q04DX002 (ip), vehicle: other): 119 % of control

Structure (SMILES): COc1cc2c(cc1OC)C1Cc3cc(OC)c(OC)cc3C(C2)N1
- T/C [5]: 97 % of control
- T/C [8]: 97 % of control
- T/C [11]: 97 % of control

Structure (SMILES): C=C(C)/C=C/C1CCCCC1
- T/C (dose: 50.0 mg/kg/injection, schedule: Q01DX009 (ip), vehicle: saline with Tween-80): 95 % of control
- T/C [3]: 106 % of control
- T/C [4]: 95 % of control

Structure (SMILES): CN(C)[C@@H]1C(=O)C(C(=O)NCNCCCC(=O)O)=C(O)[C@@]2(O)C(=O)C3=C(O)c4c(O)cccc4[C@@](C)(O)[C@H]3C[C@@H]12
- T/C [7]: 103 % of control
- T/C (dose: 100.0 mg/kg/injection, schedule: Q04DX003 (ip), vehicle: saline): 105 % of control
- T/C [10]: 102 % of control
- T/C (dose: 200.0 mg/kg/injection, schedule: Q04DX003 (ip), vehicle: saline): 96 % of control
- T/C [13]: 94 % of control
- T/C (dose: 400.0 mg/kg/injection, schedule: Q04DX003 (ip), vehicle: saline): 96 % of control

Structure (SMILES): Nc1ccc(C(=O)NCCCC(=O)O)cc1
- T/C [14]: 108 % of control
- T/C [15]: 103 % of control
- T/C [16]: 95 % of control

Structure (SMILES): O=C(N/N=C/c1ccc2c(c1)OCO2)C(O)(c1ccccc1)c1ccccc1
- T/C [6]: 106 % of control
- T/C [9]: 95 % of control
- T/C [12]: 103 % of control

Structure (SMILES): N#CC(/C=C/c1ccccc1)Nc1ccccc1N (stereo unspecified)
- T/C [17]: 91 % of control
- T/C [18]: 94 % of control
- T/C [19]: 86 % of control

Structure (SMILES): O=C(COc1ccccc1)NCCNC(=S)Nc1ccccc1
- T/C [17]: 102 % of control
- T/C [18]: 94 % of control
- T/C [19]: 112 % of control

Structure (SMILES): OCNC(=S)c1c(Cl)cccc1Cl
- T/C [1]: 100 % of control
- T/C [2]: 102 % of control
- T/C (dose: 400.0 mg/kg/injection, schedule: Q04DX003 (ip), vehicle: saline with Tween-80): 102 % of control

Structure (SMILES): CN(C)c1ccc(I)cc1
- T/C (dose: 25.0 mg/kg/injection, schedule: Q01DX001 (ip), vehicle: saline with Tween-80): 107 % of control
- T/C (dose: 50.0 mg/kg/injection, schedule: Q01DX001 (ip), vehicle: saline with Tween-80): 110 % of control

Structure (SMILES): CCC(=O)C(CCCN(C)C)(c1ccccc1)c1ccccc1
- T/C (dose: 5.0 mg/kg/injection, schedule: Q01DX001 (ip), vehicle: saline): 107 % of control
- T/C (dose: 10.0 mg/kg/injection, schedule: Q01DX001 (ip), vehicle: saline): 104 % of control
- T/C (dose: 20.0 mg/kg/injection, schedule: Q01DX001 (ip), vehicle: saline): 93 % of control
- T/C (dose: 40.0 mg/kg/injection, schedule: Q01DX001 (ip), vehicle: saline): 98 % of control

Structure (SMILES): O=C1C(c2ccccc2)=C2C(=C1c1ccccc1)c1cccc3cccc2c13
- T/C (dose: 50.0 mg/kg/injection, schedule: Q01DX001 (ip), vehicle: saline): 97 % of control
- T/C [14]: 97 % of control
- T/C [3]: 92 % of control
- T/C [15]: 100 % of control
- T/C [4]: 103 % of control
- T/C [16]: 120 % of control
- T/C (dose: 400.0 mg/kg/injection, schedule: Q01DX009 (ip), vehicle: saline with Tween-80): 97 % of control

Structure (SMILES): COc1cc2c(cc1OC)C(CC1=C(c3ccccc3)CN3CCc4cc(OC)c(OC)cc4C3C1)NCC2 (stereo unspecified)
- T/C (dose: 4.0 mg/kg/injection, schedule: Q04DX003 (ip), vehicle: water): 106 % of control and 102 % of control
- T/C (dose: 8.0 mg/kg/injection, schedule: Q04DX003 (ip), vehicle: water): 98 % of control and 101 % of control
- T/C (dose: 16.0 mg/kg/injection, schedule: Q04DX003 (ip), vehicle: water): 106 % of control and 103 % of control
- T/C (dose: 32.0 mg/kg/injection, schedule: Q04DX003 (ip), vehicle: water): 102 % of control and 96 % of control
- T/C (dose: 64.0 mg/kg/injection, schedule: Q04DX003 (ip), vehicle: water): 96 % of control and 95 % of control
- T/C [5]: 101 % of control and 97 % of control
- T/C [8]: 94 % of control and 92 % of control
